Laboratory results: patent publication US20110136728A1, “METHODS OF INCREASING BONE FORMATION USING LEPTIN-RELATED PEPTIDES” (priority 2009, published 2011)
No end group written: not given here.

Test system: ob/ob mouse model
Assay: Earlier study of OB3 and D-amino acid-substituted OB3 analogs: body weight gain, food and water intake, blood glucose
Type: in vivo
Details: mouse, in vivo
Text: Single-point D-amino acid substitution was used to study the structure-function relationships of each amino acid residue in OB3, and to increase its efficacy. The restricted domain represented by OB3 contains a functional epitope, which has the ability to mimic at least some of the effects of leptin on energy balance and glucose homeostasis.
The design of peptide ligands involved the introduction of conformational constraints into native sequences by techniques that include, but are not limited to, D-amino acid substitution or cyclization. (Hruby and Bonner, Methods Mol Biol. 35:201-40 (1994)). Systematic replacement of L-amino acids by their D-amino acid isoforms was used to determine the stereostructural requirements of specific residues in a peptide for peptide-receptor interaction, and to assess the contribution of certain secondary structural motifs, e.g., α-helix or β-turn, to the bioactivity of the peptide. (Hruby, Biopolymers 33(7):1073-82 (1993) and Hruby, Life Sci. 52(10):845-55 (1993)). This approach increased peptide resistance to enzymatic hydrolysis, and to enhance the properties of biologically active peptides, including receptor binding, functional potency, and duration of action. (See Fauchere et al., Adv. Drug Res., 23:127-139 (1992); Doherty et al., J. Med. Chem., 36:2585-2594 (1993); Kirby et al., J. Med. Chem., 36:3802-3808 (1993); Morita et al., FEBS Lett., 353:84-88 (1994)).
(See Rozhayskaya-Arena M, et al., Endocrinology 141:2501-2517 (2000); Grasso P et al., Regulatory Pep. 101:123-129 (2001)).

SCSLPQT [OB3, amino acid residues 116-122 of mouse leptin]
maximal reduction of blood glucose levels: approximately 100 mg/dl
